The text below walks through data of patent publication US12091409B2, “Ether linked triazoles as NRF2 activators” (ASTEX THERAPEUTICS LIMITED, priority 2016, dated 2024).

In assay [1] the test system is COPD macrophages and alveolar macrophages from cigarette smoke-exposed mice. To be noted: cited from earlier work.
Assay [2] relates to rats in a cerebral ischemia-reperfusion model. The settings on record: cited from earlier work.
Assay [3] deals with NRF2 wild-type but not KO mice. The settings on record: after administration of tBHQ; cited from earlier work.
In assay [4] the test system is rats on a choline-deficient L-amino acid-defined diet. To be noted: cited from earlier work.
Assay [5] has as its system NQO1 specific enzyme activity in BEAS-2B cells (marker for NRF2 activation). Kind of assay: BEAS-2B NQO1 MTT Assay. The settings on record: Homo sapiens, BEAS-2B, 48 h, NQO1 specific activity induction, 48 hours with compound. The assay is classed as cell-based. In a few lines: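 Following 48 h compound treatment at 37° C., 5% CO2, cells were lysed and MTT cocktail added. Product formation was followed kinetically at 570 nm for 30 min. Rate (Delta OD/min) against log concentration was fitted with 3 parameters to give pEC50 for induction of NQO1 specific activity.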

In the case of `C[S+]([O-])CCCCN=C=S` (stereo not shown) [Sulforaphane], the “expression of Macrophage Receptor with Collagenous structure (MARCO)” value in assay [1] was “increases the expression of Macrophage Receptor with Collagenous structure (MARCO)”. In the case of `CC(C)(C)c1cc(O)ccc1O` [tert-butylhydroquinone], the cortical damage result in assay [2] was “reduced cortical damage”. Besides, in assay [3], the cortical glutathione levels entry was “increased in NRF2 wild-type but not KO mice”. As for `O=C(NCc1ccccn1)Nc1nnc(-c2ccco2)o1` [NK-252], the “progression of histologic abnormalities, especially hepatic fibrosis” value in assay [4] was “significantly attenuated”. Turning to `Cc1c(-c2cnccn2)ssc1=S` [oltipraz], in assay [4], the “progression of histologic abnormalities, especially hepatic fibrosis” value is given as “significantly attenuated”.

As usually defined, the EC50 is the concentration that produces a half-maximal response. For `CC[C@H]1Cc2ccccc2S(=O)(=O)N(Cc2cc([C@H](OCc3cn(CC)nn3)C(C)(C)C(=O)O)ccc2C)C1` [Example 81, (3S)-((1-ethyl-1H-1,2,3-triazol-4-yl)methoxy)-2,2-dimethyl-3-(4-methyl-3-(((S)-4-ethyl-1,1-dioxido-4,5-dihydrobenzo[f][1,2]thiazepin-2(3H)-yl)methyl)phenyl)propanoic acid], in assay [5], the EC50 lay within 1 to 10 nM. With `COCCn1cc(CO[C@H](c2ccc(C)c(CN(Cc3ccccc3)S(=O)(=O)c3cccc(C(=O)O)c3)c2)C(C)(C)C(=O)O)nn1` [Example 94, (R)-3-(N-benzyl-N-(5-(2-carboxy-1-((1-(2-methoxyethyl)-1H-1,2,3-triazol-4-yl)methoxy)-2-methylpropyl)-2-methylbenzyl)sulfamoyl)benzoic acid], the EC50 in assay [5] fell in the range of 100 to 1000 nM.
